Source: ChEMBL document CHEMBL3596180, “Evaluation of histone deacetylase inhibitors (HDACi) as therapeutic leads for human African trypanosomiasis (HAT)” (Bioorg Med Chem, 2015)
Active and inactive are the calls of the source. The rule behind the calls is not given here.

Columns and labels:
[1] = system: Trypanosoma brucei brucei; assay: Antitrypanosomal activity against Trypanosoma brucei brucei 427 assessed as inhibition of parasite proliferation measured as ATP levels after 48 hrs by luciferase-based assay; assay type: functional, organism-based; conditions: Trypanosoma brucei, 427, 48 h
[2] = Half-life in iv dosed human measured under phase 1/2 trial; assay type: ADME, organism-based; conditions: in vivo
[3] = Tmax in po dosed human measured under phase 1 trial; assay type: ADME, organism-based; conditions: in vivo
[4] = Tmax in iv dosed human measured under phase 1/2 trial; assay type: ADME, organism-based; conditions: in vivo
[5] = Tmax in iv dosed human measured under phase 1 trial; assay type: ADME, organism-based; conditions: in vivo
[6] = Cmax in iv dosed human measured under phase 1/2 trial; assay type: ADME, organism-based; design: route intravenous; conditions: in vivo
[7] = Half-life in iv dosed human measured under phase 1 trial; assay type: ADME, organism-based; conditions: in vivo
[8] = Cmax in po dosed human measured under phase 1 trial; assay type: ADME, organism-based; design: route oral; conditions: in vivo
[9] = system: Trypanosoma brucei brucei; assay: Trypanocidal activity against Trypanosoma brucei brucei assessed as killing of parasite densities of 10^4 to 10^6 cells/ml at 2 uM after […] by clonal dilution method; assay type: functional, organism-based
[10] = AUC in po dosed human measured under phase 1 trial; assay type: ADME, organism-based; conditions: in vivo
[11] = Cmax in iv dosed human measured under phase 1 trial; assay type: ADME, organism-based; design: route intravenous; conditions: in vivo
[12] = AUC in iv dosed human measured under phase 1 trial; assay type: ADME, organism-based; conditions: in vivo
[13] = system: Trypanosoma brucei brucei; assay: Trypanocidal activity against Trypanosoma brucei brucei assessed as killing of parasite densities of 10^4 to 10^6 cells/ml at 180 uM after 4 hrs by clonal dilution method; assay type: functional, organism-based
[14] = Half-life in po dosed human measured under phase 1 trial; assay type: ADME, organism-based; conditions: in vivo
[15] = AUC in iv dosed human measured under phase 1/2 trial; assay type: ADME, organism-based; conditions: in vivo
[16] = Cmax in human; assay type: ADME, organism-based; conditions: in vivo
[17] = system: Trypanosoma brucei brucei; assay: Trypanocidal activity against Trypanosoma brucei brucei assessed as killing of parasite densities of 10^4 to 10^6 cells/ml at 2.2 uM by clonal dilution method; assay type: functional, organism-based
Homo sapiens = species on record: Homo sapiens; assay: Half-life in human; assay type: ADME, organism-based; conditions: in vivo
Histone deacetylase 5 = Histone deacetylase 5 (Homo sapiens, UniProt Q9UQL6); assay: Inhibition of human HDAC5
[18] = molecular target: T1, Polyamine deacetylase HDAC10 (Homo sapiens, UniProt Q969S8); assay: Inhibition of human HDAC10
T1 sequence (Q969S8 whole entry): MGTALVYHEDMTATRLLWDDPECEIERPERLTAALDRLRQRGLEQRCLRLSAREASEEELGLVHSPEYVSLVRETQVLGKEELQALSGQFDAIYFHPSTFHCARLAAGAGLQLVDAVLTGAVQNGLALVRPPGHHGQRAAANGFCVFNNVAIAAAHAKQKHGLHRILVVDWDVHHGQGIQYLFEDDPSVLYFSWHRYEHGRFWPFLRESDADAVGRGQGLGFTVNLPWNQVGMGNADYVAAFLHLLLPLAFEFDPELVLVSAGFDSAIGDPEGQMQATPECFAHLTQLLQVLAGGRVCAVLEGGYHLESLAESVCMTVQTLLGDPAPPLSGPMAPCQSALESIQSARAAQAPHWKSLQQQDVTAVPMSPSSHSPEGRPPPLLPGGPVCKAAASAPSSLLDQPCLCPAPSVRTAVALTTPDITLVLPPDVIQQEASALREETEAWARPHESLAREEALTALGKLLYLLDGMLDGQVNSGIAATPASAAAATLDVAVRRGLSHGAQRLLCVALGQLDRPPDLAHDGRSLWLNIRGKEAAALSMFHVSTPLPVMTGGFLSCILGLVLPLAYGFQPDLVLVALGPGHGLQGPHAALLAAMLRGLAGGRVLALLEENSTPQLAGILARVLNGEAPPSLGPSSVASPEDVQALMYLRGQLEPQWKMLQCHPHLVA

Histone deacetylase 9 = Histone deacetylase 9 (Homo sapiens, UniProt Q9UKV0); assay: Inhibition of human HDAC9
Histone deacetylase 11 = molecular target: T2, Histone deacetylase 11 (Homo sapiens, UniProt Q96DB2); assay: Inhibition of human HDAC11
T2 sequence (Q96DB2 whole entry): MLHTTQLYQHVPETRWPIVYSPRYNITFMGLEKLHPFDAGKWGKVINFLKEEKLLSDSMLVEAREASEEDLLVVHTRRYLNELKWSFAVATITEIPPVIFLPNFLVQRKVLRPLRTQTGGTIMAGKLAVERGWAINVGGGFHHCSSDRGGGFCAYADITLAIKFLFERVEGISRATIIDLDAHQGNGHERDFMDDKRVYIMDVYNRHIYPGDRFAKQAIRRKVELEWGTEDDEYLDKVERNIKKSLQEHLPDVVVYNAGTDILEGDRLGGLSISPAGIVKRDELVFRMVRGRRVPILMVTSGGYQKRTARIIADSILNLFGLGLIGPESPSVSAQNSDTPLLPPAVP

[19] = Cmax in po dosed human measured under phase 2 trial; assay type: ADME, organism-based; design: route oral; conditions: in vivo
[20] = Half-life in po dosed human measured under phase 2 trial; assay type: ADME, organism-based; conditions: in vivo
[21] = Tmax in po dosed human measured under phase 2 trial; assay type: ADME, organism-based; conditions: in vivo
[22] = AUC in po dosed human measured under phase 2 trial; assay type: ADME, organism-based; conditions: in vivo

Chain of Histone deacetylase 5 (Q9UQL6 whole entry): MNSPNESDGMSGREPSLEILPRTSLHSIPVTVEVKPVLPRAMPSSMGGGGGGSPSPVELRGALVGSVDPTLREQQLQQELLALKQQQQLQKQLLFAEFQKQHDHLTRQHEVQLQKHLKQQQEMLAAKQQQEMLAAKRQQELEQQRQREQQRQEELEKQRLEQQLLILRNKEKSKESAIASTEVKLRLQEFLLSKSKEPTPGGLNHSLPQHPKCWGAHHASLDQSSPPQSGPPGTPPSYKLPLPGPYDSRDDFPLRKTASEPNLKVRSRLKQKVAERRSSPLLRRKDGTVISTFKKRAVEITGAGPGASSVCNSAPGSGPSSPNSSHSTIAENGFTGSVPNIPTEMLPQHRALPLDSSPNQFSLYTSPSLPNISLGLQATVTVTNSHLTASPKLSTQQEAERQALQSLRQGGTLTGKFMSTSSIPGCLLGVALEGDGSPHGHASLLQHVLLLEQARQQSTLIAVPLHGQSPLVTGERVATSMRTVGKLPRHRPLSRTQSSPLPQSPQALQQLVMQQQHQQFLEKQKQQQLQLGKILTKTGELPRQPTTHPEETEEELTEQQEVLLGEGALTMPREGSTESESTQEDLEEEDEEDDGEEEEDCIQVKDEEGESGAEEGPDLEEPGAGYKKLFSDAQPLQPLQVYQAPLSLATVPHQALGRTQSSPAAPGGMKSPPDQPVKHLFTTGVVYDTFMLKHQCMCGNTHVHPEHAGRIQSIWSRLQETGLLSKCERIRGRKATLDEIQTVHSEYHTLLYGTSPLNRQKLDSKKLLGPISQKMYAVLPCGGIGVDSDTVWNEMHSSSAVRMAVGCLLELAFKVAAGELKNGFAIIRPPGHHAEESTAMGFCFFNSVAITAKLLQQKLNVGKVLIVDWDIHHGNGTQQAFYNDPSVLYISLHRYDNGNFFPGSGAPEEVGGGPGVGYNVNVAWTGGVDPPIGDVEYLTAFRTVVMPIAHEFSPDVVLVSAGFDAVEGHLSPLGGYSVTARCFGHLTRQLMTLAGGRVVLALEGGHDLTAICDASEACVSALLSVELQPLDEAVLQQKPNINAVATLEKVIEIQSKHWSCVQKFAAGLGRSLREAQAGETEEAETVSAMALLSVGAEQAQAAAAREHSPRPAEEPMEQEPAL
Chain of Histone deacetylase 9 (Q9UKV0 whole entry): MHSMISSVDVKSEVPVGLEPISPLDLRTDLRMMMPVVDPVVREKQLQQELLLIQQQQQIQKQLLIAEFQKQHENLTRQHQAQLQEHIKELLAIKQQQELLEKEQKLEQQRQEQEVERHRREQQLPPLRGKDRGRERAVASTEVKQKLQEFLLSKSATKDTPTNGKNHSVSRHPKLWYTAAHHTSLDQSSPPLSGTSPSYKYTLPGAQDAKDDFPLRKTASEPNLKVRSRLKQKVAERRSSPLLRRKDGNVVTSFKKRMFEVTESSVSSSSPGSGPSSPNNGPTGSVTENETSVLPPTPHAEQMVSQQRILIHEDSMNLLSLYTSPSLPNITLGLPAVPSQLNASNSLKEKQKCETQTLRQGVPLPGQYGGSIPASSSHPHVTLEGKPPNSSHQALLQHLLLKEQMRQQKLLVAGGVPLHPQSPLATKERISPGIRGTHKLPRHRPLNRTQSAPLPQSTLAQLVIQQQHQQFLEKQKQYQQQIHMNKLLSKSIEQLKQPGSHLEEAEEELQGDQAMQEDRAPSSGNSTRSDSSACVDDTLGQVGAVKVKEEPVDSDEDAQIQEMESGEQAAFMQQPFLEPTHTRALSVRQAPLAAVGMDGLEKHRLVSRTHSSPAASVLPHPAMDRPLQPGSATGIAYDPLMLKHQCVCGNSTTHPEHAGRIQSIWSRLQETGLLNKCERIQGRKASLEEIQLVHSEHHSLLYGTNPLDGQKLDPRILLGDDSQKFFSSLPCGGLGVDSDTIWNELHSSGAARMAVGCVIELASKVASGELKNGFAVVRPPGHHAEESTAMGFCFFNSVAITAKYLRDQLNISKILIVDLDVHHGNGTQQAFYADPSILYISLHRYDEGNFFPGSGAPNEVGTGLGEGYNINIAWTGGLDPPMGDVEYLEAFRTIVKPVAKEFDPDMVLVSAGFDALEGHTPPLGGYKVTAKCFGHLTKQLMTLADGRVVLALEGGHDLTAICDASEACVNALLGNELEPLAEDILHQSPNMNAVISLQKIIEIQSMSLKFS

O=C(Nc1ccccc1-c1cn2c(CN3CCNCC3)csc2n1)c1cnc2ccccc2n1
EC50 [1]: 892 nM

CC(/C=C/C(=O)NO)=C\[C@@H](C)C(=O)c1ccc(N(C)C)cc1 [TRICHOSTATIN]
EC50 [1]: 5000 nM

O=C(/C=C/c1cccc(S(=O)(=O)Nc2ccccc2)c1)NO [BELINOSTAT]
half-life [2]: 209 min | Tmax [3]: 1.9 h | Tmax [4]: 27 min | Tmax [5]: 0 min | Cmax [6]: 183 µM | half-life [7]: 41.4 min | Cmax [8]: 2140 nM | Activity [9]: inactive | EC50 [1]: 2150 nM | EC90 [1]: 4.01 µM | AUC [10]: 2700 ng·h/mL | Cmax [11]: 101 µM | AUC [12]: 9990 ng·h/mL | Activity [13]: inactive | half-life [14]: 90 min | AUC [15]: 47500 ng·h/mL

N=C(N)c1ccc(OCCCCCOc2ccc(C(=N)N)cc2)cc1 [PENTAMIDINE]
Cmax [16]: 900 nM | Activity [17]: Active | t1/2 (Homo sapiens): 11 days

Cn1cc(CNCC2CCN(c3ncc(C(=O)NO)cn3)CC2)c2ccccc21 [QUISINOSTAT]
Ki (Histone deacetylase 5): 2.1 nM | Tmax [3]: 4 h | Cmax [8]: 3 nM | EC50 [1]: 29 nM | AUC [10]: 9.77 ng·h/mL | Ki [18]: 0.05 nM | Ki (Histone deacetylase 9): 3.8 nM

CCCCc1nc2cc(/C=C/C(=O)NO)ccc2n1CCN(CC)CC [PRACINOSTAT]
Cmax [8]: 497 nM | EC50 [1]: 9550 nM | AUC [10]: 1030 ng·h/mL | Ki (Histone deacetylase 11): 43 nM

Cc1[nH]c2ccccc2c1CCNCc1ccc(/C=C/C(=O)NO)cc1 [PANOBINOSTAT]
Tmax [3]: 1.5 h | Cmax [19]: 191 nM | Tmax [5]: 30 min | half-life [7]: 960 min | Cmax [8]: 31 nM | half-life [20]: 900 min | EC50 [1]: 1580 nM | EC90 [1]: 4.86 µM | AUC [10]: 91.3 ng·h/mL | Cmax [11]: 1.41 µM | AUC [12]: 605 ng·h/mL | Tmax [21]: 1 h | AUC [22]: 356 ng·h/mL | half-life [14]: 768 min

CN1CCc2c(c3ccccc3n2Cc2ccc(C(=O)NO)cc2)C1 [TUBASTATIN A]
EC50 [1]: 2750 nM
